Measurements taken from patent US10131652B2, “Pyrimidinyloxy benzene derivatives as herbicides” (E. I. DU PONT DE NEMOURS AND COMPANY, priority 2014, dated 2018).

Key:
Experiment in all cases: Test F pre-/postemergence plant response
Type in all cases: in vivo
Conditions in all cases: scale 0 to 100
[1] = tested on: Brazilian crabgrass (Digitaria horizontalis)
In short: (§1)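 Seeds were sown in silt loam soil and sprayed preemergence; separately, plants at the 1- to 4-leaf stage (2 to 18 cm) received postemergence sprays. Test chemicals were in a non-phytotoxic solvent mixture with surfactant. After 14 to 21 days in a greenhouse, injury was visually rated 0 (no effect) to 100 (complete control) against untreated controls.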

[2] = tested on: Italian ryegrass (Lolium multiflorum)
In short: as §1

[3] = tested on: arrowleaf sida (Sida rhombifolia)
In short: as §1

[4] = tested on: corn (Zea mays)
In short: as §1

[5] = tested on: fall panicum (Panicum dichotomiflorum)
In short: as §1

[6] = tested on: goosegrass (Eleusine indica)
In short: as §1

[7] = tested on: green foxtail (Setaria viridis)
In short: as §1

[8] = tested on: kochia (Kochia scoparia)
In short: as §1

[9] = tested on: lambsquarters (Chenopodium album)
In short: as §1

[10] = tested on: large (Lg) crabgrass (Digitaria sanguinalis)
In short: as §1

[11] = tested on: nightshade (eastern black nightshade, Solanum ptycanthum)
In short: as §1

[12] = tested on: palmer pigweed (Amaranthus palmeri)
In short: as §1

[13] = tested on: sandbur (southern sandbur, Cenchrus echinatus)
In short: as §1

[14] = tested on: soybean (Glycine max)
In short: as §1

[15] = tested on: surinam grass (Brachiaria decumbens)
In short: as §1

[16] = tested on: wild poinsettia (Euphorbia heterophylla)
In short: as §1

FC(F)c1cc(-c2c(Cl)cccc2Oc2ncc(Cl)cn2)no1 [Compound 179]
Plant response rating, Crabgrass, Brazil ([1]; 16 g ai/ha Postemergence): 10
Plant response rating, Crabgrass, Brazil ([1]; 16 g ai/ha Preemergence): 0
Plant response rating, Crabgrass, Brazil ([1]; 31 g ai/ha Postemergence): 20
Plant response rating, Crabgrass, Brazil ([1]; 31 g ai/ha Preemergence): 0
Plant response rating, Crabgrass, Brazil ([1]; 62 g ai/ha Postemergence): 20
Plant response rating, Crabgrass, Brazil ([1]; 62 g ai/ha Preemergence): 15
Plant response rating, Crabgrass, Brazil ([1]; 125 g ai/ha Postemergence): 30
Plant response rating, Crabgrass, Brazil ([1]; 125 g ai/ha Preemergence): 25
Plant response rating, Ryegrass, Italian ([2]; 16 g ai/ha Postemergence): 0
Plant response rating, Ryegrass, Italian ([2]; 16 g ai/ha Preemergence): 0
Plant response rating, Ryegrass, Italian ([2]; 31 g ai/ha Postemergence): 0
Plant response rating, Ryegrass, Italian ([2]; 31 g ai/ha Preemergence): 0
Plant response rating, Ryegrass, Italian ([2]; 62 g ai/ha Postemergence): 0
Plant response rating, Ryegrass, Italian ([2]; 125 g ai/ha Postemergence): 0
Plant response rating, Ryegrass, Italian ([2]; 125 g ai/ha Preemergence): 10
Plant response rating, Ryegrass, Italian ([2]; Preemergence): 0
Plant response rating, Arrowleaf Sida ([3]; 16 g ai/ha Postemergence): 70
Plant response rating, Arrowleaf Sida ([3]; 16 g ai/ha Preemergence): 0
Plant response rating, Arrowleaf Sida ([3]; 31 g ai/ha Postemergence): 80
Plant response rating, Arrowleaf Sida ([3]; 31 g ai/ha Preemergence): 80
Plant response rating, Arrowleaf Sida ([3]; 62 g ai/ha Postemergence): 85
Plant response rating, Arrowleaf Sida ([3]; 62 g ai/ha Preemergence): 80
Plant response rating, Arrowleaf Sida ([3]; 125 g ai/ha Postemergence): 100
Plant response rating, Arrowleaf Sida ([3]; 125 g ai/ha Preemergence): 90
Plant response rating, Corn ([4]; 16 g ai/ha Postemergence): 5
Plant response rating, Corn ([4]; 16 g ai/ha Preemergence): 0
Plant response rating, Corn ([4]; 31 g ai/ha Postemergence): 0
Plant response rating, Corn ([4]; 31 g ai/ha Preemergence): 0
Plant response rating, Corn ([4]; 62 g ai/ha Postemergence): 10
Plant response rating, Corn ([4]; 62 g ai/ha Preemergence): 0
Plant response rating, Corn ([4]; 125 g ai/ha Postemergence): 15
Plant response rating, Corn ([4]; 125 g ai/ha Preemergence): 40
Plant response rating, Panicum, Fall ([5]; 16 g ai/ha Postemergence): 15
Plant response rating, Panicum, Fall ([5]; 16 g ai/ha Preemergence): 0
Plant response rating, Panicum, Fall ([5]; 31 g ai/ha Postemergence): 10
Plant response rating, Panicum, Fall ([5]; 31 g ai/ha Preemergence): 0
Plant response rating, Panicum, Fall ([5]; 62 g ai/ha Postemergence): 15
Plant response rating, Panicum, Fall ([5]; 125 g ai/ha Postemergence): 10
Plant response rating, Panicum, Fall ([5]; 125 g ai/ha Preemergence): 75
Plant response rating, Panicum, Fall ([5]; Preemergence): 50
Plant response rating, Goosegrass ([6]; 16 g ai/ha Preemergence): 0
Plant response rating, Goosegrass ([6]; 31 g ai/ha Preemergence): 0
Plant response rating, Goosegrass ([6]; 125 g ai/ha Preemergence): 0
Plant response rating, Goosegrass ([6]; Preemergence): 0
Plant response rating, Foxtail, Green ([7]; 16 g ai/ha Preemergence): 0
Plant response rating, Foxtail, Green ([7]; 31 g ai/ha Preemergence): 0
Plant response rating, Foxtail, Green ([7]; 125 g ai/ha Preemergence): 15
Plant response rating, Foxtail, Green ([7]; Preemergence): 0
Plant response rating, Kochia ([8]; 16 g ai/ha Postemergence): 65
Plant response rating, Kochia ([8]; 16 g ai/ha Preemergence): 0
Plant response rating, Kochia ([8]; 31 g ai/ha Postemergence): 75
Plant response rating, Kochia ([8]; 31 g ai/ha Preemergence): 0
Plant response rating, Kochia ([8]; 62 g ai/ha Postemergence): 90
Plant response rating, Kochia ([8]; 125 g ai/ha Postemergence): 95
Plant response rating, Kochia ([8]; 125 g ai/ha Preemergence): 98
Plant response rating, Kochia ([8]; Preemergence): 70
Plant response rating, Lambsquarters ([9]; 16 g ai/ha Preemergence): 98
Plant response rating, Lambsquarters ([9]; 31 g ai/ha Preemergence): 100
Plant response rating, Lambsquarters ([9]; 125 g ai/ha Preemergence): 100
Plant response rating, Lambsquarters ([9]; Preemergence): 100
Plant response rating, Crabgrass, Large ([10]; 16 g ai/ha Preemergence): 0
Plant response rating, Crabgrass, Large ([10]; 31 g ai/ha Preemergence): 0
Plant response rating, Crabgrass, Large ([10]; 62 g ai/ha Preemergence): 35
Plant response rating, Crabgrass, Large ([10]; 125 g ai/ha Preemergence): 60
Plant response rating, Nightshade ([11]; 31 g ai/ha Preemergence): 65
Plant response rating, Nightshade ([11]; 125 g ai/ha Preemergence): 100
Plant response rating, Nightshade ([11]; Preemergence): 100
Plant response rating, Pigweed, Palmer ([12]; 16 g ai/ha Postemergence): 70
Plant response rating, Pigweed, Palmer ([12]; 16 g ai/ha Preemergence): 0
Plant response rating, Pigweed, Palmer ([12]; 31 g ai/ha Postemergence): 90
Plant response rating, Pigweed, Palmer ([12]; 31 g ai/ha Preemergence): 0
Plant response rating, Pigweed, Palmer ([12]; 62 g ai/ha Postemergence): 85
Plant response rating, Pigweed, Palmer ([12]; 125 g ai/ha Postemergence): 85
Plant response rating, Pigweed, Palmer ([12]; 125 g ai/ha Preemergence): 65
Plant response rating, Pigweed, Palmer ([12]; Preemergence): 35
Plant response rating, Sandbur ([13]; 16 g ai/ha Postemergence): 0
Plant response rating, Sandbur ([13]; 16 g ai/ha Preemergence): 0
Plant response rating, Sandbur ([13]; 31 g ai/ha Postemergence): 0
Plant response rating, Sandbur ([13]; 31 g ai/ha Preemergence): 0
Plant response rating, Sandbur ([13]; 62 g ai/ha Postemergence): 5
Plant response rating, Sandbur ([13]; 125 g ai/ha Postemergence): 10
Plant response rating, Sandbur ([13]; 125 g ai/ha Preemergence): 0
Plant response rating, Sandbur ([13]; Preemergence): 0
Plant response rating, Soybean ([14]; 16 g ai/ha Postemergence): 60
Plant response rating, Soybean ([14]; 16 g ai/ha Preemergence): 0
Plant response rating, Soybean ([14]; 31 g ai/ha Postemergence): 50
Plant response rating, Soybean ([14]; 31 g ai/ha Preemergence): 0
Plant response rating, Soybean ([14]; 62 g ai/ha Postemergence): 75
Plant response rating, Soybean ([14]; 125 g ai/ha Postemergence): 90
Plant response rating, Soybean ([14]; 125 g ai/ha Preemergence): 35
Plant response rating, Soybean ([14]; Preemergence): 0
Plant response rating, Surinam Grass ([15]; 16 g ai/ha Preemergence): 0
Plant response rating, Surinam Grass ([15]; 31 g ai/ha Preemergence): 0
Plant response rating, Surinam Grass ([15]; 125 g ai/ha Preemergence): 0
Plant response rating, Surinam Grass ([15]; Preemergence): 0
Plant response rating, Poinsettia, Wild ([16]; 16 g ai/ha Postemergence): 15
Plant response rating, Poinsettia, Wild ([16]; 16 g ai/ha Preemergence): 0
Plant response rating, Poinsettia, Wild ([16]; 31 g ai/ha Postemergence): 15
Plant response rating, Poinsettia, Wild ([16]; 31 g ai/ha Preemergence): 0
Plant response rating, Poinsettia, Wild ([16]; 62 g ai/ha Postemergence): 20
Plant response rating, Poinsettia, Wild ([16]; 125 g ai/ha Postemergence): 35
Plant response rating, Poinsettia, Wild ([16]; 125 g ai/ha Preemergence): 0
Plant response rating, Poinsettia, Wild ([16]; Preemergence): 0
